Assay results published in patent US10100046B2, “Inhibitors of lysine specific demethylase-1” (Celgene Quanticel Research, Inc., priority 2014, dated 2018).

Columns and labels:
[1] = system: THP-1 (AML) cells; experiment: LSD1 CD11b Cellular Assay (flow cytometry); assay type: cell-based; settings: Homo sapiens, 96 h; CD11b expression in THP-1 cells, 4 days
Experimental: To analyze LSD1 inhibitor efficacy in cells, a CD11b flow cytometry assay was performed. LSD1 inhibition induces CD11b expression in THP-1 (AML) cells which can be measured by flow cytometry. […] LSD1 test compounds were serially diluted in DMSO. The dilutions were added to each well accordingly to a final concentration of 0.2% DMSO. The cells were incubated at 37 degrees Celsius in 5% CO2 for 4 days. 250 μL of each well was transferred to a well in a 96 well round bottom plate. The plate was centrifuged at 1200 rpm at 4 degrees Celsius in a Beckman Coulter Alegra 6KR centrifuge for 5 minutes. The media was removed leaving the cells at the bottom of the wells. The cells were washed in 100 μL cold HBSS (Hank's Balanced Salt Solution) plus 2% BSA (Bovine Serum Albumin) solution and centrifuged at 1200 rpm at 4 degrees Celsius for 5 minutes. The wash was removed. […] The cells were centrifuged and washed two times in 100 μl HBSS plus 2% BSA. After the final spin the cells were resuspended in 100 μL HBSS plus 2% BSA containing 1 ug/mL DAPI (4′,6-diamidino-2-phenylindole). The cells were then analyzed by flow cytometry in a BD FACSAria machine. Cells were analyzed for CD11b expression. The percent of CD11b expressing cells for each inhibitor concentration was used to determine an IC50 curve for each compound analyzed.

[2] = target: full-length human LSD1 (Homo sapiens (Human), UniProt O60341); experiment: In Vitro Enzyme Inhibition Assay—LSD-1 (TR-FRET); assay type: biochemical; settings: H3K4me1-biotin labeled peptide
Experimental: This assay determines the ability of a test compound to inhibit LSD1 demethylase activity. E. coli expressed full-length human LSD1 (Accession number 060341) was purchased from Active Motif (Cat#31334).
The enzymatic assay of LSD1 activity is based on Time Resolved-Fluorescence Resonance Energy Transfer (TR-FRET) detection. The inhibitory properties of compounds to LSD1 were determined in 384-well plate format under the following reaction conditions: 0.1-0.5 nM LSD1, 50 nM H3K4me1-biotin labeled peptide (Anaspec cat #64355), 2 μM FAD in assay buffer of 50 mM HEPES, pH7.3, 10 mM NaCl, 0.005% Brij35, 0.5 mM TCEP, 0.2 mg/ml BSA. Reaction product was determined quantitatively by TR-FRET after the addition of detection reagent Phycolink Streptavidin-allophycocyanin (Prozyme) and Europium-anti-unmodified histone H3 lysine 4 (H3K4) antibody (PerkinElmer) in the presence of LSD1 inhibitor such as 1.8 mM of Tranylcypromine hydrochloride (2-PCPA) in LANCE detection buffer (PerkinElmer) to final concentration of 12.5 nM and 0.25 nM respectively.
The assay reaction was performed according to the following procedure: 2 μL of the mixture of 150 nM H3K4me1-biotin labeled peptide with 2 μL of 11-point serial diluted test compound in 3% DMSO were added to each well of plate, followed by the addition of 2 μL of 0.3 nM LSD1 and 6 μM of FAD to initiate the reaction. The reaction mixture was then incubated at room temperature for one hour, and terminated by the addition of 6 μL of 1.8 mM 2-PCPA in LANCE detection buffer containing 25 nM Phycolink Streptavidin-allophycocyanin and 0.5 nM Europium-anti-unmodified H3K4 antibody. Enzymatic reaction is terminated within 15 minutes if 0.5 LSD1 enzyme is used in the plate. Plates were read by EnVision Multilabel Reader in TR-FRET mode (excitation at 320 nm, emission at 615 nm and 665 nm) after 1 hour incubation at room temperature. A ratio was calculated (665/615) for each well and fitted to determine inhibition constant (IC50).
The ability of the compounds disclosed herein to inhibit LSD1 activity was quantified and the respective IC50 value was determined. Table 3 provides the IC50 values of various substituted heterocyclic compounds disclosed herein.

SMILES	IC50 [1] [nM]	IC50 [2] [nM]
Cn1cc2cc(-n3c(-c4ccc(C#N)c(F)c4)nc(N4CCC(N)CC4)cc3=O)ccc2n1 [Example 31, 4-[4-(4-aminopiperidin-1-yl)-1-(2-methylindazol-5-yl)-6-oxopyrimidin-2-yl]-2-fluorobenzonitrile]	100 to 1000	≤ 100
COc1ccc(-n2c(-c3ccc(C#N)c(F)c3)nc(N3CCC(N)CC3)cc2=O)cc1F [Example 30, 4-[4-(4-aminopiperidin-1-yl)-1-(3-fluoro-4-methoxyphenyl)-6-oxopyrimidin-2-yl]-2-fluorobenzonitrile]	100 to 1000	≤ 100
Cn1ncc2cc(-c3sc(N4CC[C@@H]5CNC[C@@H]5CC4)nc3-c3ccc(C#N)cc3)cnc21 [Example 11, cis-4-(2-{decahydropyrrolo[3,4-d]azepin-6-yl}-5-{1-methyl-1H-pyrazolo[3,4-b]pyridin-5-yl}-1,3-thiazol-4-yl)benzonitrile]	< 100	≤ 100
Cn1cnc2cc(-c3sc(C(=O)N4CCC[C@@H](N)C4)nc3-c3ccc(C#N)cc3)cnc21 [Example 20, 4-{2-[(3R)-3-aminopiperidine-1-carbonyl]-5-{3-methyl-3H-imidazo[4,5-b]pyridin-6-yl}-1,3-thiazol-4-yl}benzonitrile]	100 to 1000	≤ 100
Cn1cnc2cc(-c3sc(N4CCC(N)CC4)nc3-c3ccc(C#N)cc3)cnc21 [Example 9, 4-[2-(4-aminopiperidin-1-yl)-5-{3-methyl-3H-imidazo[4,5-b]pyridin-6-yl}-1,3-thiazol-4-yl]benzonitrile]	< 100	≤ 100
Cn1ncc2cc(-c3sc(N4CC[C@@H]5CNC[C@@H]5CC4)nc3-c3ccc(C#N)cc3)ccc21 [Example 2, cis-4-(2-{decahydropyrrolo[3,4-d]azepin-6-yl}-5-(1-methyl-1H-indazol-5-yl)-1,3-thiazol-4-yl)benzonitrile]	< 100	–
N#Cc1ccc(-c2nc(N3CCC4CNCC4C3)cc(=O)n2-c2ccc(C3CC3)cc2)cc1F (stereo not drawn) [Example 28, 4-[4-(1,2,3,3a,4,6,7,7a-octahydropyrrolo[3,4-c]pyridin-5-yl)-1-(4-cyclopropylphenyl)-6-oxopyrimidin-2-yl]-2-fluorobenzonitrile]	< 100	≤ 100
N#Cc1ccc(-c2nc(N3CCC4NCCC4C3)cc(=O)n2-c2ccc(C3CC3)cc2)cc1F (stereo not drawn) [Example 27, 4-[4-(1,2,3,3a,4,6,7,7a-octahydropyrrolo[3,2-c]pyridin-5-yl)-1-(4-cyclopropylphenyl)-6-oxopyrimidin-2-yl]-2-fluorobenzonitrile]	< 100	≤ 100
Cn1cc2cc(-c3sc(N4CCC(N)CC4)nc3-c3ccc(C#N)cc3)ccc2n1 [Example 34]	< 100	≤ 100
Cn1cnc2cc(-c3sc(N4CCC(N)CC4)nc3-c3ccc(C#N)cc3)ccc21 [Example 8, 4-[2-(4-aminopiperidin-1-yl)-5-(1-methyl-1H-1,3-benzodiazol-5-yl)-1,3-thiazol-4-yl]benzonitrile]	< 100	≤ 100
Cn1cnc2cc(-c3sc(N4CC[C@@H]5CNC[C@@H]5CC4)nc3-c3ccc(C#N)cc3)ccc21 [Example 10, cis-4-(2-{decahydropyrrolo[3,4-d]azepin-6-yl}-5-(1-methyl-1H-1,3-benzodiazol-5-yl)-1,3-thiazol-4-yl)benzonitrile]	< 100	≤ 100
N#Cc1ccc(-c2nc(C(=O)N3CCC[C@@H](N)C3)sc2-c2cnn(CC(F)(F)F)c2)cc1 [Example 21, 4-{2-[(3R)-3-aminopiperidine-1-carbonyl]-5-[1-(2,2,2-trifluoroethyl)-1H-pyrazol-4-yl]-1,3-thiazol-4-yl}benzonitrile]	< 100	≤ 100
N#Cc1ccc(-c2nc(N3CCC(N)CC3)cc(=O)n2-c2ccc(C3CC3)cc2)cc1F [Example 26, 4-[4-(4-Aminopiperidin-1-yl)-1-(4-cyclopropylphenyl)-6-oxopyrimidin-2-yl]-2-fluorobenzonitrile]	< 100	≤ 100
N#Cc1ccc(-c2nc(N3CC[C@@H]4CNC[C@@H]4CC3)sc2-c2cnn(CC(F)(F)F)c2)cc1 [Example 13, 4-(2-{decahydropyrrolo[3,4-d]azepin-6-yl}-5-[1-(2,2,2-trifluoroethyl)-1H-pyrazol-4-yl]-1,3-thiazol-4-yl)benzonitrile]	< 100	≤ 100
Cn1cnc2cc(-c3sc(C(=O)N4CCC[C@H](N)C4)nc3-c3ccc(C#N)cc3)ccc21 [Example 17, 4-{2-[(3 S)-3-aminopiperidine-1-carbonyl]-5-(1-methyl-1H-1,3-benzodiazol-5-yl)-1,3-thiazol-4-yl}benzonitrile]	< 100	≤ 100
Cn1ncc2cc(-c3sc(N4CCC(N)CC4)nc3-c3ccc(C#N)cc3)cnc21 [Example 4, 4-[2-(4-aminopiperidin-1-yl)-5-{1-methyl-1H-pyrazolo[3,4-b]pyridin-5-yl}-1,3-thiazol-4-yl]benzonitrile]	< 100	≤ 100
N#Cc1ccc(-c2nc(C(=O)N3CCC[C@@H](N)C3)sc2-c2cnn(CC3CC3)c2)cc1 [Example 22, 4-{2-[(3R)-3-aminopiperidine-1-carbonyl]-5-[1-(cyclopropylmethyl)-1H-pyrazol-4-yl]-1,3-thiazol-4-yl}benzonitrile]	100 to 1000	≤ 100
Cn1ncc2cc(-c3sc(N4CCC5(CCNC5)CC4)nc3-c3ccc(C#N)cc3)ccc21 [Example 5, 4-(2-{2,8-diazaspiro[4.5]decan-8-yl}-5-(1-methyl-1H-indazol-5-yl)-1,3-thiazol-4-yl)benzonitrile]	100 to 1000	≤ 100
Cc1ccc(-c2sc(C(=O)N3CCC[C@@H](N)C3)nc2-c2ccc(C#N)cc2)cc1 [Example 19, 4-{2-[(3R)-3-aminopiperidine-1-carbonyl]-5-(4-methylphenyl)-1,3-thiazol-4-yl}benzonitrile]	< 100	≤ 100
N#Cc1ccc(-c2nc(N3CCC(N)CC3)cc(=O)n2-c2ccc(C3CC3)c(F)c2)cc1F [Example 33, 4-[4-(4-aminopiperidin-1-yl)-1-(4-cyclopropyl-3-fluorophenyl)-6-oxopyrimidin-2-yl]-2-fluorobenzonitrile]	< 100	≤ 100
Cn1ncc2cc(-c3sc(N4CCC5CNCC5C4)nc3-c3ccc(C#N)cc3)ccc21 (stereo not drawn) [Example 7]	< 100	≤ 100
Cn1ncc2cc(-c3sc(N4CCC(N)CC4)nc3-c3ccc(C#N)cc3)ccc21 [Example 1, 4-[2-(4-aminopiperidin-1-yl)-5-(1-methyl-1H-indazol-5-yl)-1,3-thiazol-4-yl]benzonitrile]	< 100	≤ 100
Cn1cnc2cc(-c3sc(C(=O)N4CCC[C@@H](N)C4)nc3-c3ccc(C#N)cc3)ccc21 [Example 16, 4-{2-[(3R)-3-aminopiperidine-1-carbonyl]-5-(1-methyl-1H-1,3-benzodiazol-5-yl)-1,3-thiazol-4-yl}benzonitrile]	< 100	≤ 100
Cn1ccc2cc(-c3sc(N4CCC(N)CC4)nc3-c3ccc(C#N)cc3)cnc21 [Example 3, 4-[2-(4-aminopiperidin-1-yl)-5-{1-methyl-1H-pyrrolo[2,3-b]pyridin-5-yl}-1,3-thiazol-4-yl]benzonitrile]	< 100	≤ 100
COc1ccc(-n2c(-c3ccc(C#N)c(F)c3)nc(N3CCC(N)CC3)cc2=O)cc1 [Example 32, 4-[4-(4-aminopiperidin-1-yl)-1-(4-methoxyphenyl)-6-oxopyrimidin-2-yl]-2-fluorobenzonitrile]	–	≤ 100
